The numbers were not newly measured in patent US8645075B2, “Method for predicting organ toxicity and a system thereof” (Strand Life Sciences PVT Ltd., priority 2008, dated 2014), which cites them from elsewhere.

One data set concerns the target T1, CPT1 (Homo sapiens, UniProt P50416).
T1 sequence (P50416 1-773): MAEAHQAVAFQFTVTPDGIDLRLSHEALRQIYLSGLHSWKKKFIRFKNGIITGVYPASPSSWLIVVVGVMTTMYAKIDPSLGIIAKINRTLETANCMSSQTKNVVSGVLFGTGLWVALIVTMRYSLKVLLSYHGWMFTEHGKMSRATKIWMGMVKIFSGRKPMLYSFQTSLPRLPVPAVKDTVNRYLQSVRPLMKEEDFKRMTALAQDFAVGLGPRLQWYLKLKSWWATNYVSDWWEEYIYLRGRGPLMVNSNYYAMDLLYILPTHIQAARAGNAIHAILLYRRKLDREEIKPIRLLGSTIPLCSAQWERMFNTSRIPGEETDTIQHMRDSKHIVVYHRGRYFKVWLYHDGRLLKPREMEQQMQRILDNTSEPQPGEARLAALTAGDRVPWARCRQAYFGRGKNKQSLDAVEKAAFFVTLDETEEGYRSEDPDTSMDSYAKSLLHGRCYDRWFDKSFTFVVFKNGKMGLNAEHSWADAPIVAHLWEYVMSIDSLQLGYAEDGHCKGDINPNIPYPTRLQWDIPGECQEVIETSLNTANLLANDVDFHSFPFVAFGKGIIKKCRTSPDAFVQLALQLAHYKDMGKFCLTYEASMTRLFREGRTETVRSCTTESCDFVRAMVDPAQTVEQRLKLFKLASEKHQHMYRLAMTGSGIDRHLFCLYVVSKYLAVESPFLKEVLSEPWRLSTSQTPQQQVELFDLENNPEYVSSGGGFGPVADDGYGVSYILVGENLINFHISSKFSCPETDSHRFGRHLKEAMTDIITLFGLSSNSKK

A further data set has as its system FoF1 ATPase. The note with it: experimental value used for model validation.

Each structure is given as a SMILES string. Read-outs that look alike come from different tables or passages of the source.

For `C1CCC(C(CC2CCCCN2)C2CCCCC2)CC1` (stereo not drawn) [Perhexilline], the “Triglyceride accumulation, Experiment” value on CPT1 was 98%.
Turning to `C=C(C)[C@]12C[C@@H](C)[C@@]34O[C@](c5ccccc5)(O[C@@H]1[C@@H]3[C@@H]1O[C@]1(CO)[C@@H](O)[C@]1(O)C(=O)C(C)=C[C@H]14)O2` [Daphnetoxin], the “EC value (Energy Charge), Experiment” value in the data set with FoF1 ATPase is reported as 0.52.
On to `CCCCc1oc2ccccc2c1C(=O)c1cc(I)c(OCCN(CC)CC)c(I)c1` [Amiodarone], for which, on CPT1 (experimental value used for model validation), the “Triglyceride accumulation, Experiment” value is 150%.
